Laboratory results published in patent publication US4621081A, “Cephalosporin antibiotics” (Glaxo Group Limited, priority 1978, dated 1986).

How the values were obtained:
[1] = General (broad spectrum) antibiotic activity; format: cell-based
strains of Pseudomonas = assay: Activity against strains of Pseudomonas; format: cell-based
[2] = system: strains of Staphylococcus aureas; assay: Activity against strains of Staphylococcus aureas; format: cell-based
[3] = Effect of human serum on antibacterial properties; format: cell-based
[4] = Effect of increased inocula; format: cell-based
[5] = Bactericidal action relative to minimum inhibitory concentration; format: cell-based
[6] = Distribution in the bodies of small rodents after subcutaneous injection; format: in vivo
[7] = Serum levels and serum half-life in primates after intramuscular injection; format: in vivo
gram-negative bacteria = assay: Experimental infections in mice with gram-negative bacteria; format: in vivo
[8] = system: strains of Pseudomonas aeruginosa; assay: Experimental infections in mice with strains of Pseudomonas aeruginosa; format: in vivo; settings: experimental infection
[9] = Acute toxicity tests in mice; settings: mouse, in vivo
Nephrotoxicity in rats = format: in vivo; settings: dosages of 2.0 g/kg

Row | SMILES | general antibiotic properties / antibiotic activity [1] | activity against strains of Pseudomonas (strains of Pseudomonas) | activity against strains of Staphylococcus aureas [2] | antibacterial properties impaired by human serum [3] | effect of increased inocula against the compound [4] | bactericidal at concentrations close to the minimum inhibitory concentration [5] | distribution in the bodies of small rodents [6] | therapeutic levels in small rodents [6] | half-life in man (probability, from serum half-life in primates) ([7]; man, inferred from serum half-life in primates) | serum levels in primates ([7]; primates, intramuscular injection) | treatment of experimental infections in mice with gram-negative bacteria (gram-negative bacteria) | protection against strains of Pseudomonas aeruginosa [8] | protection compared with the treatment with an aminoglycoside such as amikacin ([8]; versus an aminoglycoside such as amikacin) | LD50 [9] | nephrotoxicity in rats (Nephrotoxicity in rats)
1 | C[n+]1ccc(SCC2=C(C(=O)[O-])N3C(=O)[C@@H](NC(=O)/C(=N\OC(C)(C)C(=O)O)c4csc(N)n4)[C@H]3SC2)cc1 [(6R,7R)-7-[(Z)-2-(2-aminothiazol-4-yl)-2-(2-carboxyprop-2-oxyimino)acetamido]-3-[(1-methylpyridinium-4-yl)-thiomethyl]ceph-3-em-4-carboxylate] | not dissimilar properties to the compound of formula (Ib) | – | – | – | – | – | – | – | – | – | – | – | – | – | –
2 | C[n+]1ccc(SCC2=C(C(=O)[O-])N3C(=O)[C@@H](NC(=O)/C(=N\OC4(C(=O)O)CCC4)c4csc(N)n4)[C@H]3SC2)cc1 [compound of formula (Ib), (6R,7R)-7-[(Z)-2-(2-aminothiazol-4-yl)-2-(1-carboxycyclobut-1-oxyimino)acetamido]-3-[(1-methylpyridinium-4-yl)-thiomethyl]ceph-3-em-4-carboxylate] | possesses to an outstanding extent the general antibiotic properties | excellent activity | useful activity | not impaired | low | rapidly bactericidal | well distributed | useful therapeutic levels | comparatively long half-life | high and long lasting serum levels | successfully treated | excellent protection | comparable | > 1000 mg/kg | No nephrotoxicity was observed
